Experimental findings from patent CN114306288A, “一种卡巴拉汀长效经皮吸收贴剂及其制备方法” (priority 2022, dated 2022) are described below.

The structures appear in SMILES notation.

A short description of the series: In vitro transdermal permeation test (Franz horizontal two-chamber diffusion cell, pig ear skin). In kind it is in vitro ADME. The settings on record: Examples 33-38, compared with no enhancer; 0.1 g enhancer, 1 mmol rivastigmine salicylate ionic liquid in 2 g adhesive (Example 10); result in words.

Turning to `CCCCCCCC/C=C\CCCCCCCC(=O)O` [油酸], the “promotion of rivastigmine cumulative permeation amount by transdermal absorption enhancer” value was “没有显著促进”.

As to `CC1CCC(C(C)C)C(O)C1` (centres unmarked) [薄荷醇], the “promotion of rivastigmine cumulative permeation amount by transdermal absorption enhancer” value is on record as “没有显著促进”.
